Assay results published in EP4640213A1, “ORAL PHARMACEUTICAL PREPARATION COMPRISING SODIUM-GLUCOSE COTRANSPORTER-2 INHIBITOR AND ANGIOTENSIN II RECEPTOR BLOCKER” (THPharm Corp., priority 2022, dated 2024).

How the values were obtained:
[1] = Drug-drug compatibility test under accelerated stability conditions; format: physicochemical
Procedure: Specifically, after storing a mixture of ARB and SGLT-2 inhibitor for 4 weeks under accelerated stability test conditions (40 ± 2°C/75 ± 5% relative humidity), changes in the contents of each ingredient and flexible substance and changes in properties (color, agglomeration, etc.) were analyzed. Olmesartan, Valsartan, and Telmisartan were used as ARBs, and Empagliflozin, Dapagliflozin (Dapagliflozin propanediol monohydrate), and Canagliflozin were used as SGLT-2 inhibitors. [Table 4] […] To observe the properties and viscosity of the main ingredients, 10 g of the mixtures of ARBs and SGLT-2 inhibitors stored for 1, 2, 3, and 4 weeks were taken and exposed to 100 ml of purified water at room temperature for 10 minutes, and then the properties and viscosity were identified.

[2] = 4-week repeated oral administration toxicity; format: in vivo, Sprague-Dawley rats; conditions: oral daily for 4 weeks
Procedure: During the test, general symptom observation, blood test, and body weight measurement were performed, and after the observation period ended, the rats were euthanized and autopsied.

[3] = test system: angiotensin converting enzyme (ACE); test: ACE mRNA expression (RT-PCR) in LPS inflammation-induced H9c2 cells; format: cell-based, rat; conditions: for mRNA expression of ACE: alone administration, FIGS. 5 and 6
Procedure: Specifically, H9c2 cells as a […] cardiac cell line were obtained and used from the Korea Cell Line Bank (KCLB 40071, Korea) and incubated and prepared in a DMEM medium supplemented with 10% FBS and 1% antibiotic-antimycotic (10 units/ml penicillin, 100 µg/ml streptomycin, 0.25 µg/ml amphotericin) under 37°C and 5% CO2 conditions.
To confirm the effect on ACE activity, the prepared H9c2 cells were treated with 2.5 µg/ml of Lipopolysaccharide (LPS), which was 2.5 times more than the amount used in conventional inflammation-related experiments, to induce inflammation, thereby setting the optimized conditions for confirming ACE expression. LPS inflammation-induced H9c2 cells were treated with 10, 25, and 50 µM Telmisartan or olmesartan, respectively, and the H9c2 cells were harvested for ELISA assay. The harvested cells were treated with 1 ml of an RIPA buffer and stirred at 4°C for 30 minutes to extract proteins. Thereafter, the proteins were centrifuged at 4°C and 10,000 rpm for 20 minutes, and the supernatant was transferred to a sterilized tube and stored at - 80°C for use in the ELISA assay.
Specifically, LPS inflammation-induced H9c2 cells in Experimental Example 1-2 were treated with 10 or 25 µM Telmisartan and 10 or 50 µM olmesartan, and then treated with 200 µl of chloroform together with 1 ml of TRIZol (Sigma, USA), gently mixed, and separated for 10 minutes, and then centrifuged at 4°C and 10,000 rpm for 10 minutes. After centrifugation, only the supernatant from the tube was taken and transferred to a new sterile tube, and the supernatant was treated with 500 µl of isopropanol to precipitate RNA. The precipitated RNA was centrifuged at 4°C, 10,000 rpm for 10 minutes, and then the supernatant except for the pellets in the tube was fully removed, and the RNA pellets were treated with 500 µl of 75% ethyl alcohol and thoroughly washed. The washed pellets were centrifuged at 4°C, 10,000 rpm for 5 minutes, and then the supernatant except the pellets was fully removed. The tube containing the pellets from which the supernatant had been cleanly removed was treated with diethyl pyrocarbonate (DEPC)-water and stored at - 80°C for use in an RT-PCR experiment.
RT-PCR was performed by synthesizing cDNA from mRNA using an RT-PCR kit containing DNA polymerase, buffer, dNTP, and tracking dye, and then using ACE primers in Table 1 under the conditions in Table 2 for 35 cycles. The PCR products were electrophoresed on a […] agarose gel, identified using a UV transilluminator, and expressed as normalized to GAPDH for quantitative comparison.
In order to confirm the effect of each combination or single substance on the mRNA expression of ACE, the experimental samples in Table 3 were treated to H9c2 cells induced with LPS inflammation in Experimental Example 1-2, respectively, and then the mRNA expression of ACE was evaluated in the same manner as in Experimental Example 1-3.

[4] = test system: angiotensin converting enzyme (ACE); test: ACE ELISA assay (ACE protein expression) in LPS inflammation-induced H9c2 cells; format: cell-based, rat; conditions: FIG. 3
Procedure: Specifically, H9c2 cells as a human cardiac cell line were obtained and used from the Korea Cell Line Bank (KCLB 40071, Korea) and incubated and prepared in a DMEM medium supplemented with 10% FBS and 1% antibiotic-antimycotic (10 units/ml penicillin, 100 µg/ml streptomycin, 0.25 µg/ml amphotericin) under 37°C and 5% CO2 conditions.
To perform the ELISA assay, 10,000 pg/ml, 5,000 pg/ml, 2,500 pg/ml, 1,250 pg/ml, 625 pg/ml, 312 pg/ml, and 156 pg/ml of Human ACE standard solutions and a standard dilution buffer were added by 0.1 ml to each well of an antibody-coated 96-well plate. […] Thereafter, each well was added with 90 µl of the prepared TMB solution, incubated for 20 to 25 minutes in a dark room at 37°C, and then treated with each 0.1 ml of the prepared TMB stop solution to stop an ACE ELISA reaction, and the OD absorbance at 450 nm was read in a microplate reader within 30 minutes, and the relative OD450 was derived using the following Equation. […]

A549 cells = test: Cell survival rate (MTT) in A549 cells; format: cell-based; conditions: up to a concentration of 25 µM, 24 and 48 hours, FIGS. 1A, 1B
Procedure: (§1) To screen angiotensin II receptor blockers for use in combinations of angiotensin II receptor blockers (ARBs) and sodium-glucose cotransporter-2 (SGLT-2) inhibitors for the treatment of heart failure, cell survival rates were evaluated.
(§2) Specifically, A549 cells were obtained from the Korean Cell Line Bank (KCLB) and subcultured using a RPMI-1640 medium supplemented with 10% fetal bovine serum (FBS) and 1% Penicillin, and MDCK cells were obtained from ATCC and subcultured using a DMEM medium supplemented with 10% FBS. 200 µl each of the A549 cells and MDCK cells incubated in an incubator under 37°C and 5% CO2 conditions were dispensed at 2 × 10^4 cells/well in a 96-well plate, and then a control group was treated with 100 µl of the medium, and experimental groups were treated with 1.25, 25, 50, and 100 µM of Telmisartan or olmesartan, respectively. After 24 and 48 hours, all of the wells were treated with 50 µl each of a 2 mg/ml MTT reagent and incubated in an incubator for 3 hours, and then each well was added with […] of DMSO, wrapped in foil, stirred for 30 minutes at room temperature, and the absorbance was measured at 570 nm to obtain the cell survival rate.

[5] = Single oral administration pharmacokinetic test; conditions: beagle dogs
Procedure: The control and test drugs were administered orally once by a single tablet, and were crossed over (4 × 4 cross over) four times at one-week intervals. Fasting was performed from 5 to 6 pm the day before administration. The control and test drugs were administered into the tongue root, and then administered with approximately 15 ml of water, and feed was provided approximately 4 hours after administration. Blood was collected at 0 (blank), 0.25, 0.5, 0.75, 1, 1.5, 2, 3, 4, 5, 6, 8, 12, and 24 hours (14 times) after administration of the control and test drugs, and left by a 7-day drug-free period.

MDCK cells = test: Cell survival rate (MTT) in MDCK cells; format: cell-based; conditions: up to a concentration of 25 µM, 24 and 48 hours, FIGS. 2A, 2B
Procedure: as §1, §2

[6] = ARB ingredient (first value of cell), Acceleration 1 week, 40 ± 2°C/75 ± 5% relative humidity
[7] = ARB ingredient (first value of cell), Acceleration 2 week
[8] = ARB ingredient (first value of cell), Acceleration 3 week
[9] = ARB ingredient (first value of cell), Acceleration 4 week
[10] = ARB ingredient (first value of cell), Initial
[11] = color, agglomeration, etc., Initial
[12] = SGLT-2 inhibitor ingredient (second value of cell), Acceleration 1 week
[13] = SGLT-2 inhibitor ingredient (second value of cell), Acceleration 2 week
[14] = SGLT-2 inhibitor ingredient (second value of cell), Acceleration 3 week
[15] = SGLT-2 inhibitor ingredient (second value of cell), Acceleration 4 week
[16] = SGLT-2 inhibitor ingredient (second value of cell), Initial
[17] = low-concentration groups of 2.5 µM to 10 µM
[18] = 15 µM high-concentration groups

| Compound | flexible substance ([1]; Acceleration 1 week) | property ([1]; Acceleration 1 week) | flexible substance ([1]; Acceleration 2 week) | property ([1]; Acceleration 2 week) | flexible substance ([1]; Acceleration 3 week) | property ([1]; Acceleration 3 week) | flexible substance ([1]; Acceleration 4 week) | property ([1]; Acceleration 4 week) | flexible substance ([1]; Initial) | property [1, 11] | mRNA expression of ACE [3, 17] | also measured |
| --- | --- | --- | --- | --- | --- | --- | --- | --- | --- | --- | --- | --- |
| CCCc1nc2c(C)cc(-c3nc4ccccc4n3C)cc2n1Cc1ccc(-c2ccccc2C(=O)O)cc1 [Com. Ex. 16, Telmisartan] | 0.1 or less | suitable | 0.1 or less | suitable | 0.1 or less | suitable | 0.1 or less | suitable | 0.1 or less | suitable | – | content [1, 6]: 100.1%; content [1, 7]: 100%; content [1, 8]: 100%; content [1, 9]: 100%; content [1, 10]: 100.1% |
| OC[C@H]1O[C@@H](c2ccc(Cl)c(Cc3ccc(O[C@H]4CCOC4)cc3)c2)[C@H](O)[C@@H](O)[C@@H]1O [Com. Ex. 17, Empagliflozin] | 1.0 or less | suitable | 1.0 or more | suitable | 5.0 or more | unsuitable | 5.0 or more | unsuitable | 0.1 or less | suitable | – | content [1, 12]: 97.3%; content [1, 13]: 95.1%; content [1, 14]: 85.4%; content [1, 15]: 80.2%; content [1, 16]: 99.9% |
| CCCc1nc2c(C)cc(-c3nc4ccccc4n3C)cc2n1Cc1ccc(-c2ccccc2C(=O)O)cc1 [Telmisartan, 4'-[(1,4'-dimethyl-2'-propyl[2,6'-bi-1H-benzimidazol]-1'-yl)methyl][1,1'-biphenyl]-2-carboxylic acid] | – | – | – | – | – | – | – | – | – | – | did not decrease to a normal level | body weight measurement [2]: a tendency for inhibiting weight gain; mRNA expression ([3]; 25 µM treatment group, FIG. 4): mostly inhibited; mRNA expression inhibition effect ([3]; all treatment concentrations, FIG. 4): superior to that of olmesartan; Cmax of Telmisartan (T/R ratio) (in the presence of Dapagliflozin, 80 mg / 10 mg, 90% confidence interval 0.99 to 1.43): approximately 1.19 times; ACE expression inhibition effect ([4]; 25 µM treatment group): the best; ACE expression inhibition effect ([4]; all treatment concentrations (10, 25, 50 µM)): superior to that of olmesartan; cell survival rate (A549 cells): no effect on cell survival rate; difference in AUCall between groups in the single administration group and the combined administration group [5]: 1.0 times; cell survival rate (MDCK cells): no effect on cell survival rate |
| CCCCC(=O)N(Cc1ccc(-c2ccccc2-c2nnn[nH]2)cc1)[C@H](C(=O)O)C(C)C [Com. Ex. 20, Valsartan] | 0.1 or more | suitable | 0.1 or more | suitable | 0.1 or more | suitable | 0.1 or more | suitable | 0.1 or less | suitable | – | content [1, 6]: 99.4%; content [1, 7]: 99.2%; content [1, 8]: 99%; content [1, 9]: 98.7%; content [1, 10]: 99.7% |
| CCOc1ccc(Cc2cc([C@@H]3O[C@H](CO)[C@@H](O)[C@H](O)[C@H]3O)ccc2Cl)cc1 [Dapagliflozin, (1S)-1,5-anhydro-1-C-{4-chloro-3-[(4-ethoxyphenyl)methyl]phenyl}-D-glucitol] | – | – | – | – | – | – | – | – | – | – | did not decrease to a normal level | GLU ([2]; blood test): decreased; Cmax of Dapagliflozin (T/R ratio) (in the presence of Telmisartan, 90% confidence interval 0.93 to 1.12): approximately 1.02 times; AUC of Dapagliflozin (T/R ratio) (in the presence of Telmisartan, 90% confidence interval 0.97 to 1.03): approximately 1.00 times; difference in AUCall between groups in the single administration group and the combined administration group [5]: 1.0 times |
| CCCc1nc2c(C)cc(-c3nc4ccccc4n3C)cc2n1Cc1ccc(-c2ccccc2C(=O)O)cc1 [Comparative Example 14, Telmisartan] | – | – | – | – | – | – | – | – | – | – | – | mRNA expression of ACE [3, 18]: decrease below the normal level |
| CCCc1nc(C(C)(C)O)c(C(=O)O)n1Cc1ccc(-c2ccccc2-c2nnn[nH]2)cc1 [olmesartan] | – | – | – | – | – | – | – | – | – | – | – | cell survival rate (A549 cells): no effect on cell survival rate; cell survival rate (MDCK cells): no effect on cell survival rate |
| Cc1ccc([C@@H]2O[C@H](CO)[C@@H](O)[C@H](O)[C@H]2O)cc1Cc1ccc(-c2ccc(F)cc2)s1 [Com. Ex. 21, Canagliflozin] | 1.0 or less | unsuitable | 5.0 or more | unsuitable | 5.0 or more | unsuitable | 5.0 or more | unsuitable | 0.1 or less | suitable | – | content [1, 12]: 95.2%; content [1, 13]: 89.2%; content [1, 14]: 85.2%; content [1, 15]: 80.1%; content [1, 16]: 99.5% |
| OC[C@H]1O[C@@H](c2ccc(Cl)c(Cc3ccc(O[C@H]4CCOC4)cc3)c2)[C@H](O)[C@@H](O)[C@@H]1O [Empagliflozin, (1S)-1,5-anhydro-1-C-[4-chloro-3-[[4-[[(3S)-tetrahydro-3-furanyl]oxy]phenyl]methyl]phenyl]-D-glucitol] | – | – | – | – | – | – | – | – | – | – | did not decrease to a normal level | – |
| OC[C@H]1O[C@@H](c2ccc(Cl)c(Cc3ccc(O[C@H]4CCOC4)cc3)c2)[C@H](O)[C@@H](O)[C@@H]1O [Comparative Example 8, Empagliflozin] | – | – | – | – | – | – | – | – | – | – | – | mRNA expression of ACE [3, 18]: decrease below the normal level |
